According to patent US10954269B2, “Anti-inflammatory tripeptides” (Dr. August Wolff Gmbh & Co. KG Arzneimittel, priority 2013, dated 2021):

What was measured:
Conditions in all cases: substance 10^−9M
[1] = tested on: primary human T-cells; assay: Cytokine secretion on protein level in activated primary human T-cells (13-plex FACS / Luminex, supernatant); format: cell-based
Procedure: (§1) Primary T-cells were isolated from peripheral blood from healthy volunteers and from secondary lymphatic organs from naïve C57BL/6 mice, respectively. The cells were stimulated with phorbol-12-myristate-13-acetate (PMA)/Ionomycin and interferon-gamma (IFN-γ), respectively, for 48 h to activate the cells. The activated cells release pro-inflammatory cytokines. In parallel a human (HaCaT) keratinocyte cell line was activated with PMA/Ionomycin and IFN-γ, respectively, too. […] At the same time release of anti-inflammatory IL-10 was inhibited. Two days after addition of PMA/Ionomycin and IFN-γ, respectively, the induction of IL-1 secretion was determined in the supernatant for proving that the cells are activated. […] The anti-inflammatory properties of the tripeptides were determined 48 h and 72 h following stimulation. A 13-plex-system based FACS analysis was used for showing the reduced secretion of pro-inflammatory cytokines in the supernatant. Data for IL-1, IL-2, IL-6, IL-12p70 IL-17, IFN-γ and TNF-α are considered to be most relevant. Thus, analysis of the anti-inflammatory properties of the tripeptides is preferably based on the results obtained for these analytes. […] Using this method the gene expression of pro-inflammatory markers like IL-6, IL-17, IFN-γ and TNF-α was determined.
(§2) In a third experiment murine and human T cells and HaCaT cells were stimulated with PMA/Ionomycin and treated with Examples 14, 15, 16 and 17 at 10^−7 M, 10^−9 M and 10^−11 M. Cytokine concentrations (IFN-γ, IL-17 and IL-10 for T cells and IFN-γ for HaCat) were assessed in the supernatants using the Luminex technology. Expression of genes coding for Il-1β, IL-6 and TNF-α was determined. […] Moreover, concentrations of pro-inflammatory cytokines IFN-γ and IL-17 was reduced in the supernatants whereas the concentration of anti-inflammatory cytokine IL-10 was increased. […]
(§3) For the biological assay two human cell lines of different origin were chosen to allow for translation of the results obtained. A HaCaT cell is a cell type belonging to an immortal human keratinocyte line used in scientific research. Its use in research allows for the characterization of human keratinocyte using a model that is reproducible and representing a human epithelial cell line. In contrast human T-lymphocytes (T-cells) are a type of lymphocyte (itself a type of white blood cell) that play a central role in cell-mediated inflammation/immunity.

[2] = tested on: primary murine T-cells; assay: Cytokine secretion on protein level in activated primary murine T-cells (13-plex FACS / Luminex, supernatant); format: cell-based, C57BL/6 mice
Procedure: as §1
In a third experiment murine and human T cells and HaCaT cells were stimulated with PMA/Ionomycin and treated with Examples 14, 15, 16 and 17 at 10^−7 M, 10^−9 M and 10^−11 M. Cytokine concentrations (IFN-γ, IL-17 and IL-10 for T cells and IFN-γ for HaCat) were assessed in the supernatants using the Luminex technology. Expression of genes coding for Il-1β, IL-6 and TNF-α was determined. […] Moreover, concentrations of pro-inflammatory cytokines IFN-γ and IL-17 was reduced in the supernatants whereas the concentration of anti-inflammatory cytokine IL-10 was increased.
The anti-inflammatory and immunomodulatory effects of selected examples of the present invention were compared with common immunosuppressants. Thus, cells activated with PMA/Ionomycin and IFN-γ, respectively, were stimulated with MMF or dexamethasone. Following stimulation the secretion of pro-inflammatory cytokines was analyzed on protein and gene level (Table 9 and FIGS. 4-6).

[3] = tested on: human keratinocyte cell line (HaCaT); assay: Cytokine secretion on protein level in activated human keratinocyte cell line HaCaT (13-plex FACS / Luminex, supernatant); format: cell-based
Procedure: as §1, §2, §3

[4] = primary human T-cells stimulated with IFN-γ
[5] = primary human T-cells stimulated with PBS
[6] = primary human T-cells stimulated with PMA/Ionomycin
[7] = primary murine T-cells stimulated with IFN-γ
[8] = primary murine T-cells stimulated with PBS
[9] = primary murine T-cells stimulated with PMA/Ionomycin
[10] = HaCaT stimulated with PMA/Ionomycin

## C[C@@H]1C[C@H]2[C@@H]3CCC4=CC(=O)C=C[C@]4(C)[C@@]3(F)[C@@H](O)C[C@]2(C)[C@@]1(O)C(=O)CO [dexamethasone, reference compound]
[1]; [4]
  IL-1 cytokine concentration: 0 pg/mL
  IL-2 cytokine concentration: 0 pg/mL
  IL-4 cytokine concentration: 0 pg/mL
  IL-5 cytokine concentration: 0 pg/mL
  IL-6 cytokine concentration: 56.47 pg/mL
  IL-9 cytokine concentration: 0 pg/mL
  IL-10 cytokine concentration: 0 pg/mL
  IL-12 cytokine concentration: 0 pg/mL
  IL-13 cytokine concentration: 0 pg/mL
  IL-17 cytokine concentration: 0 pg/mL
  IL-22 cytokine concentration: 0 pg/mL
  TNF-α cytokine concentration: 0 pg/mL
[1]; [5]
  IFN-γ cytokine concentration: 0 pg/mL
  IL-1 cytokine concentration: 0 pg/mL
  IL-2 cytokine concentration: 0 pg/mL
  IL-4 cytokine concentration: 0 pg/mL
  IL-5 cytokine concentration: 0 pg/mL
  IL-6 cytokine concentration: 80.63 pg/mL
  IL-9 cytokine concentration: 13.05 pg/mL
  IL-10 cytokine concentration: 45.66 pg/mL
  IL-12 cytokine concentration: 0 pg/mL
  IL-13 cytokine concentration: 55.12 pg/mL
  IL-17 cytokine concentration: 69.45 pg/mL
  IL-22 cytokine concentration: 0 pg/mL
  TNF-a cytokine concentration: 41.45 pg/mL
[1]; [6]
  IFN-γ cytokine concentration: 888.61 pg/mL
  IL-1 cytokine concentration: 448.69 pg/mL
  IL-2 cytokine concentration: 2198.45 pg/mL
  IL-4 cytokine concentration: 79.02 pg/mL
  IL-5 cytokine concentration: 297.13 pg/mL
  IL-6 cytokine concentration: 1078.6 pg/mL
  IL-9 cytokine concentration: 392.74 pg/mL
  IL-10 cytokine concentration: 799.85 pg/mL
  IL-12 cytokine concentration: 0 pg/mL
  IL-13 cytokine concentration: 1099.59 pg/mL
  IL-17 cytokine concentration: 1134.18 pg/mL
  IL-22 cytokine concentration: 0 pg/mL
  TNF-a cytokine concentration: 3264.56 pg/mL
[2]; [7]
  IL-1 cytokine concentration: 64.89 pg/mL
  IL-2 cytokine concentration: 70.49 pg/mL
  IL-4 cytokine concentration: 61.11 pg/mL
  IL-5 cytokine concentration: 208.28 pg/mL
  IL-6 cytokine concentration: 108.76 pg/mL
  IL-10 cytokine concentration: 905.55 pg/mL
  IL-13 cytokine concentration: 0 pg/mL
  IL-17 cytokine concentration: 52.48 pg/mL
  IL-21 cytokine concentration: 0 pg/mL
  IL-22 cytokine concentration: 37.13 pg/mL
  IL-27 cytokine concentration: 21.29 pg/mL
  TNF-α cytokine concentration: 32.32 pg/mL
[2]; [8]
  IFN-γ cytokine concentration: 0 pg/mL
  IL-1 cytokine concentration: 50.19 pg/mL
  IL-2 cytokine concentration: 98.48 pg/mL
  IL-4 cytokine concentration: 64.23 pg/mL
  IL-5 cytokine concentration: 249.8 pg/mL
  IL-6 cytokine concentration: 88.47 pg/mL
  IL-10 cytokine concentration: 586.12 pg/mL
  IL-13 cytokine concentration: 0 pg/mL
  IL-17 cytokine concentration: 0 pg/mL
  IL-21 cytokine concentration: 0 pg/mL
  IL-22 cytokine concentration: 69.18 pg/mL
  IL-27 cytokine concentration: 84.69 pg/mL
  TNF-α cytokine concentration: 67.18 pg/mL
[2]; [9]
  IFN-γ cytokine concentration: 1777.98 pg/mL
  IL-1 cytokine concentration: 160.95 pg/mL
  IL-2 cytokine concentration: 97.41 pg/mL
  IL-4 cytokine concentration: 57.84 pg/mL
  IL-5 cytokine concentration: 198.45 pg/mL
  IL-6 cytokine concentration: 144.26 pg/mL
  IL-10 cytokine concentration: 899.74 pg/mL
  IL-13 cytokine concentration: 0 pg/mL
  IL-17 cytokine concentration: 76.12 pg/mL
  IL-21 cytokine concentration: 0 pg/mL
  IL-22 cytokine concentration: 97.01 pg/mL
  IL-27 cytokine concentration: 94.12 pg/mL
  TNF-α cytokine concentration: 36.25 pg/mL
[3]; HaCaT stimulated with IFN-γ
  IL-1 cytokine concentration: 0 pg/mL
  IL-2 cytokine concentration: 0 pg/mL
  IL-4 cytokine concentration: 39.78 pg/mL
  IL-5 cytokine concentration: 0 pg/mL
  IL-6 cytokine concentration: 204.99 pg/mL
  IL-9 cytokine concentration: 0 pg/mL
  IL-10 cytokine concentration: 0 pg/mL
  IL-12 cytokine concentration: 0 pg/mL
  IL-13 cytokine concentration: 0 pg/mL
  IL-17 cytokine concentration: 69.14 pg/mL
  IL-22 cytokine concentration: 0 pg/mL
  TNF-α cytokine concentration: 0 pg/mL
[3]; HaCaT stimulated with PBS
  IFN-γ cytokine concentration: 12.98 pg/mL
  IL-1 cytokine concentration: 0 pg/mL
  IL-2 cytokine concentration: 0 pg/mL
  IL-4 cytokine concentration: 133.98 pg/mL
  IL-5 cytokine concentration: 0 pg/mL
  IL-6 cytokine concentration: 44.79 pg/mL
  IL-9 cytokine concentration: 0 pg/mL
  IL-10 cytokine concentration: 30.89 pg/mL
  IL-12 cytokine concentration: 0 pg/mL
  IL-13 cytokine concentration: 0 pg/mL
  IL-17 cytokine concentration: 0 pg/mL
  IL-22 cytokine concentration: 0 pg/mL
  TNF-α cytokine concentration: 0 pg/mL
[3]; [10]
  IFN-γ cytokine concentration: 0 pg/mL
  IL-1 cytokine concentration: 0 pg/mL
  IL-2 cytokine concentration: 0 pg/mL
  IL-4 cytokine concentration: 91.48 pg/mL
  IL-5 cytokine concentration: 0 pg/mL
  IL-6 cytokine concentration: 124.98 pg/mL
  IL-9 cytokine concentration: 0 pg/mL
  IL-10 cytokine concentration: 54.10 pg/mL
  IL-12 cytokine concentration: 0 pg/mL
  IL-13 cytokine concentration: 0 pg/mL
  IL-17 cytokine concentration: 0 pg/mL
  IL-22 cytokine concentration: 0 pg/mL
  TNF-α cytokine concentration: 0 pg/mL
